# Tested on: neural stem cells
# Experiment: Effect of PACAP in lieu of forskolin in the TH cocktail on neural stem cell culture
# Format: cell-based, mice
# Settings: 2 nM PACAP versus 1 μM forskolin in the TH cocktail
# Procedure: A control experiments using 1 μM forskolin and no PACAP was performed in parallel as a comparison.
substance,measurement,value
pituitary adenylate cyclase activating polypeptide [PACAP],effectiveness in the production of TH positive neurons,more effective than forskolin
